Measured values taken from PubChem BioAssay (NCI).
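Protocol summary: plate cells (96-well), add compound at 5 concentrations, incubate 48 h, interpolate endpoints linearly. At the TGI there is no net growth.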

Assays:
Assay in all cases: DTP human tumour cell line panel, 48 h
786-0 renal = test system: 786-0 renal
A498 renal = test system: A498 renal
A549 NSCLC = test system: A549 NSCLC
ACHN renal = test system: ACHN renal
BT-549 breast = test system: BT-549 breast
CAKI-1 renal = test system: CAKI-1 renal
CCRF-CEM leukemia = test system: CCRF-CEM leukemia
COLO 205 colon = test system: COLO 205 colon
DU-145 prostate = test system: DU-145 prostate
EKVX NSCLC = test system: EKVX NSCLC
HCC-2998 colon = test system: HCC-2998 colon
HCT-116 colon = test system: HCT-116 colon
HCT-15 colon = test system: HCT-15 colon
HL-60(TB) leukemia = test system: HL-60(TB) leukemia
HOP-62 NSCLC = test system: HOP-62 NSCLC
HOP-92 NSCLC = test system: HOP-92 NSCLC
HS 578T breast = test system: HS 578T breast
HT29 colon = test system: HT29 colon
IGROV1 ovarian = test system: IGROV1 ovarian
K-562 leukemia = test system: K-562 leukemia
KM12 colon = test system: KM12 colon
LOX IMVI melanoma = test system: LOX IMVI melanoma
M14 melanoma = test system: M14 melanoma
MALME-3M melanoma = test system: MALME-3M melanoma
MCF7 breast = test system: MCF7 breast
MDA-MB-231 breast = test system: MDA-MB-231 breast
MDA-MB-435 = test system: MDA-MB-435
MDA-N = test system: MDA-N
MOLT-4 leukemia = test system: MOLT-4 leukemia
NCI-H226 lung = test system: NCI-H226 lung
NCI-H23 lung = test system: NCI-H23 lung
NCI-H460 lung = test system: NCI-H460 lung
NCI-H522 lung = test system: NCI-H522 lung
NCI/ADR-RES ovarian = test system: NCI/ADR-RES ovarian
OVCAR-3 ovarian = test system: OVCAR-3 ovarian
OVCAR-4 ovarian = test system: OVCAR-4 ovarian
OVCAR-5 ovarian = test system: OVCAR-5 ovarian
OVCAR-8 ovarian = test system: OVCAR-8 ovarian
PC-3 prostate = test system: PC-3 prostate
RPMI-8226 leukemia = test system: RPMI-8226 leukemia
RXF 393 renal = test system: RXF 393 renal
SF-268 CNS = test system: SF-268 CNS
SF-295 CNS = test system: SF-295 CNS
SF-539 CNS = test system: SF-539 CNS
SK-MEL-2 melanoma = test system: SK-MEL-2 melanoma
SK-MEL-28 melanoma = test system: SK-MEL-28 melanoma
SK-MEL-5 melanoma = test system: SK-MEL-5 melanoma
SK-OV-3 ovarian = test system: SK-OV-3 ovarian
SN12C renal = test system: SN12C renal
SNB-19 CNS = test system: SNB-19 CNS
SNB-75 CNS = test system: SNB-75 CNS
SR leukemia = test system: SR leukemia
SW-620 colon = test system: SW-620 colon
T-47D breast = test system: T-47D breast
TK-10 renal = test system: TK-10 renal
U251 CNS = test system: U251 CNS
UACC-257 melanoma = test system: UACC-257 melanoma
UACC-62 melanoma = test system: UACC-62 melanoma
UO-31 renal = test system: UO-31 renal

Question: Which TGI (786-0 renal) does the source give for `Cc1cc2c(c(C=Nc3ccc(N(C)C)cc3)c1)OC1(C=C2)Oc2ccccc2C(=O)N1C` (centres undefined) here?
Answer: The TGI was 28.2 µM.

Question: And the TGI (A498 renal)?
Answer: The TGI was 42.1 µM.

Question: What about the TGI (A549 NSCLC) of the same compound?
Answer: Its TGI is 55.6 µM.

Question: And the TGI (ACHN renal)?
Answer: The TGI was 25.5 µM.

Question: What about the TGI (BT-549 breast) of the same compound?
Answer: Its TGI is 29.4 µM.

Question: And the TGI (CAKI-1 renal)?
Answer: Its TGI is 28 µM.

Question: What about the TGI (CCRF-CEM leukemia) of the same compound?
Answer: The TGI was 17.5 µM.

Question: What about the TGI (COLO 205 colon) of the same compound?
Answer: The TGI was 33.9 µM.

Question: What about the TGI (DU-145 prostate) of the same compound?
Answer: Its TGI is 27.9 µM.

Question: What about the TGI (EKVX NSCLC) of the same compound?
Answer: The TGI was 27.1 µM.

Question: What about the TGI (HCC-2998 colon) of the same compound?
Answer: The TGI was 30.2 µM.

Question: What about the TGI (HCT-116 colon) of the same compound?
Answer: The TGI was 21.6 µM.

Question: What about the TGI (HCT-15 colon) of the same compound?
Answer: The TGI was 27.6 µM.

Question: And the TGI (HL-60(TB) leukemia)?
Answer: Its TGI is 19.9 µM.

Question: And the TGI (HOP-62 NSCLC)?
Answer: Its TGI is greater than 67.5 µM.

Question: And the TGI (HOP-92 NSCLC)?
Answer: The TGI was 44.8 µM.

Question: And the TGI (HS 578T breast)?
Answer: The TGI was greater than 90.4 µM.

Question: And the TGI (HT29 colon)?
Answer: The TGI was 57.2 µM.

Question: What about the TGI (IGROV1 ovarian) of the same compound?
Answer: The TGI was 27.1 µM.

Question: And the TGI (K-562 leukemia)?
Answer: The TGI was 21.1 µM.

Question: What about the TGI (KM12 colon) of the same compound?
Answer: Its TGI is 31 µM.

Question: What about the TGI (LOX IMVI melanoma) of the same compound?
Answer: Its TGI is 29.7 µM.

Question: And the TGI (M14 melanoma)?
Answer: The TGI was 30 µM.

Question: And the TGI (MALME-3M melanoma)?
Answer: Its TGI is 33.4 µM.

Question: And the TGI (MCF7 breast)?
Answer: Its TGI is 37.9 µM.

Question: What about the TGI (MDA-MB-231 breast) of the same compound?
Answer: Its TGI is 24.8 µM.

Question: What about the TGI (MDA-MB-435) of the same compound?
Answer: Its TGI is 26.7 µM.

Question: And the TGI (MDA-N)?
Answer: Its TGI is 28.1 µM.

Question: What about the TGI (MOLT-4 leukemia) of the same compound?
Answer: The TGI was 23.5 µM.

Question: And the TGI (NCI-H226 lung)?
Answer: Its TGI is 70.2 µM.

Question: What about the TGI (NCI-H23 lung) of the same compound?
Answer: Its TGI is 28.4 µM.

Question: And the TGI (NCI-H460 lung)?
Answer: Its TGI is 36.5 µM.

Question: What about the TGI (NCI-H522 lung) of the same compound?
Answer: The TGI was 36.9 µM.

Question: And the TGI (NCI/ADR-RES ovarian)?
Answer: The TGI was greater than 60.7 µM.

Question: And the TGI (OVCAR-3 ovarian)?
Answer: Its TGI is greater than 50.1 µM.

Question: What about the TGI (OVCAR-4 ovarian) of the same compound?
Answer: The TGI was 25.1 µM.

Question: What about the TGI (OVCAR-5 ovarian) of the same compound?
Answer: Its TGI is 32.4 µM.

Question: And the TGI (OVCAR-8 ovarian)?
Answer: Its TGI is 42.9 µM.

Question: What about the TGI (PC-3 prostate) of the same compound?
Answer: The TGI was greater than 52.5 µM.

Question: And the TGI (RPMI-8226 leukemia)?
Answer: Its TGI is 31.1 µM.

Question: And the TGI (RXF 393 renal)?
Answer: The TGI was greater than 58 µM.

Question: What about the TGI (SF-268 CNS) of the same compound?
Answer: The TGI was 45.4 µM.

Question: And the TGI (SF-295 CNS)?
Answer: The TGI was 46.5 µM.

Question: And the TGI (SF-539 CNS)?
Answer: Its TGI is 28.2 µM.

Question: What about the TGI (SK-MEL-2 melanoma) of the same compound?
Answer: Its TGI is greater than 54.8 µM.

Question: What about the TGI (SK-MEL-28 melanoma) of the same compound?
Answer: The TGI was 29.7 µM.

Question: And the TGI (SK-MEL-5 melanoma)?
Answer: Its TGI is 27.6 µM.

Question: And the TGI (SK-OV-3 ovarian)?
Answer: Its TGI is 66.6 µM.

Question: And the TGI (SN12C renal)?
Answer: The TGI was 30 µM.

Question: What about the TGI (SNB-19 CNS) of the same compound?
Answer: Its TGI is 24.5 µM.

Question: What about the TGI (SNB-75 CNS) of the same compound?
Answer: The TGI was 39.5 µM.

Question: And the TGI (SR leukemia)?
Answer: The TGI was greater than 100 µM.

Question: And the TGI (SW-620 colon)?
Answer: Its TGI is 35.6 µM.

Question: And the TGI (T-47D breast)?
Answer: Its TGI is 57.5 µM.

Question: What about the TGI (TK-10 renal) of the same compound?
Answer: Its TGI is 30.7 µM.

Question: What about the TGI (U251 CNS) of the same compound?
Answer: Its TGI is 28.7 µM.

Question: What about the TGI (UACC-257 melanoma) of the same compound?
Answer: The TGI was 28.1 µM.

Question: And the TGI (UACC-62 melanoma)?
Answer: The TGI was 26.7 µM.

Question: What about the TGI (UO-31 renal) of the same compound?
Answer: The TGI was 23.2 µM.
